Read-outs that look alike come from different tables or passages of the source. Marks after values point to notes of the source that are not given here.
What was measured:
[1] = tested on: α-glucosidase from Saccharomyces cerevisiae; assay: α-Glucosidase inhibitory assay; type: biochemical; settings: mean ± SD, N = 3
[2] = molecular target: dipeptidyl peptidase-IV (DPP-IV) from porcine kidney (Sus scrofa, UniProt P22411); assay: Dipeptidyl peptidase-IV; type: biochemical; settings: for inhibition at 50 µg/mL: read-out: % Inhibition at 50 μg/mL (DPP-IV)
Chain of dipeptidyl peptidase-IV (DPP-IV) from porcine kidney (P22411 whole entry): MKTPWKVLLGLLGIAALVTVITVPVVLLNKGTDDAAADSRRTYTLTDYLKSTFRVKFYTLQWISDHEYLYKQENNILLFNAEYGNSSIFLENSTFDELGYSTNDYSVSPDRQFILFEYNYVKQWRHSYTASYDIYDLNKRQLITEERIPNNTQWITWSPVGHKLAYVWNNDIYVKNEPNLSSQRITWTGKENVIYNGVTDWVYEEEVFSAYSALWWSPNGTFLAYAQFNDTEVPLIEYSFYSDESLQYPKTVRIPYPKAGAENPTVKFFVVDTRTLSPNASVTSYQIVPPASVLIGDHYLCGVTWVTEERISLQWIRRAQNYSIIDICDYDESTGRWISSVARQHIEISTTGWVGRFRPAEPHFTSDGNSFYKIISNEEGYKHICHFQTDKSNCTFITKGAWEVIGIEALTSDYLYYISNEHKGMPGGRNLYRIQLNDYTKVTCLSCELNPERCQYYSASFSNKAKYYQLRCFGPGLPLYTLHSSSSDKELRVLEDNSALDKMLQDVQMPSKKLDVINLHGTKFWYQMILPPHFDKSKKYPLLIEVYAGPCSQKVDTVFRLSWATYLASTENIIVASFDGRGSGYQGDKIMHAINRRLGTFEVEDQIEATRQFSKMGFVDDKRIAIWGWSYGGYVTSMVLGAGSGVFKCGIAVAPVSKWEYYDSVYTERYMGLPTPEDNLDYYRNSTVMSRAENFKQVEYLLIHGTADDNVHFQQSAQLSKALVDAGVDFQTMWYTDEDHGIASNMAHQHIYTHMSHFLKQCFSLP

COc1cc(OC)c(C(=O)/C=C/c2ccccc2)c(O)c1O [Compound 4, 2′,3′-dihydroxy-4′,6′-dimethoxychalcone]
% Inhibition at 10 μg/mL (α-glucosidase) [1]: 38.04 ± 1.10% | IC50 (α-glucosidase inhibition) [1]: >10 µg/mL | % Inhibition at 50 μg/mL (DPP-IV) ([2]; mean ± SD, N = 3): 97.37 ± 1.01 ^a % | IC50 ([2]; read-out: IC50 (DPP-IV inhibition), mean ± SD, N = 3): 28.7 µM

O=c1cc(-c2ccccc2)oc2cc(O)cc(O)c12 [Compound 5, chrysin]
% Inhibition at 10 μg/mL (α-glucosidase) [1]: 27.31 ± 1.04% | IC50 (α-glucosidase inhibition) [1]: >10 µg/mL | IC50 [2]: > 197 µM | inhibition at 50 µg/mL [2]: 41.2 ± 1.03%

COc1cc(OC)c2c(c1O)OC(c1ccccc1)CC2=O (stereo not shown) [Compound 7, 8-hydroxy-5,7-dimethoxyflavanone]
% Inhibition at 10 μg/mL (α-glucosidase) [1]: 34.57 ± 1.43% | IC50 (α-glucosidase inhibition) [1]: >10 µg/mL | IC50 [2]: > 166 µM | inhibition at 50 µg/mL [2]: 27.8 ± 2.96%

O=C1C[C@@H](c2ccccc2)Oc2cc(O)cc(O)c21 [Compound 8, pinocembrin]
% Inhibition at 10 μg/mL (α-glucosidase) [1]: 37.30 ± 1.03% | IC50 (α-glucosidase inhibition) [1]: >10 µg/mL | IC50 [2]: > 195 µM | inhibition at 50 µg/mL [2]: 30.4 ± 1.9%

CC(C)=CCCC(C)=CCCC(C)=CCc1c[nH]c2ccccc12 [Compound 9, 3-Farnesyl indole]
% Inhibition at 10 μg/mL (α-glucosidase) [1]: 18.40 ± 1.39% | IC50 (α-glucosidase inhibition) [1]: >10 µg/mL | IC50 [2]: > 156 µM | inhibition at 50 µg/mL [2]: 27.1 ± 0.73%

COc1cc2c(c(O)c1OC)C(=O)C[C@@H](c1ccccc1)O2 [Compound 10, onysilin]
% Inhibition at 10 μg/mL (α-glucosidase) [1]: 28.13 ± 1.46% | IC50 (α-glucosidase inhibition) [1]: >10 µg/mL | % Inhibition at 50 μg/mL (DPP-IV) ([2]; mean ± SD, N = 3): 24.54 ± 2.38% | IC50 (DPP-IV inhibition) ([2]; mean ± SD, N = 3): >50 µg/mL

CC[C@H](C)[C@H](N)C(=O)N1CCC[C@H]1C(=O)N[C@H](C(=O)O)[C@@H](C)CC [Diprotin A, diprotin A, reference compound]
inhibition at 50 µg/mL [2]: 77.6 ± 1.18%

From publication PMC10920384 (Heliyon, 2024)
